# Experimental data published in US9969742B2, “Imidazotriazinone compounds” (Ironwood Pharmaceuticals, Inc., priority 2012, dated 2018).
# Like-named read-outs stand apart in the source and are kept apart here.
# Columns and labels:
# Assay type in all cases: biochemical
# PDE9A2 = molecular target: T1, PDE9A2 (Homo sapiens, UniProt O76083); assay: Phosphodiesterase enzyme screening assay, PDE9A2
# T1 construct: purchased Reaction Biology Corporation, Malvern, Pa
# Outline: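 Human PDE isoforms were incubated 1 h at room temperature with 4.0 μM fluorescent cGMP substrate in 100 mM HEPES pH 7.5, 5 mM MgCl2, 1 mM DTT, 0.003% Brij. EDTA stop buffer ended reactions, and substrate and 5′-GMP product were separated by microfluidic electrophoretic mobility shift with laser-induced fluorescence. Inhibition was calculated against control wells.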
# PDE1B = molecular target: T2, PDE1B (Homo sapiens, UniProt Q01064); assay: Phosphodiesterase enzyme screening assay, PDE1B
# T2 construct: purchased Reaction Biology Corporation, Malvern, Pa
# Text: (§1) Compounds of the invention were screened against PDE1A, PDE1B, PDE2A, PDE3A, PDE3B, PDE4A1A, PDE4B1, PDE4D3, PDE5A1, PDE6C, PDE7A, PDE8A1, PDE9A2, PDE10A2 AND PDE11A isoforms of the phosphodiesterase enzyme to determine activity and overall selectivity through comparative analysis. […] Where 8-methoxy-IBMX and Zaprinast were used as reference inhibitors.
# (§2) The phosphodiesterase enzyme isoforms were obtained from a commercial retailer (Reaction Biology Corporation, Malvern, Pa.) for use in the instant screening assay.
# (§3) The analysis was completed using the Caliper LabChip 3000 and a 12-sipper LabChip. LabChip assays are separations-based, meaning that the product and substrate are electrophoretically separated, thereby minimizing interferences and yielding the highest data quality available on any screening platform. […] High Z′ values, few false positives, few false negatives and analytical quality reproducibility are the reasons cited for the increasing reliance on the LabChip assays.
# (§4) The off-chip incubation mobility-shift phosphodiesterase assay uses a microfluidic chip to measure the conversion of a fluorescent cyclic AMP substrate to a 5′-AMP product, or a cyclic GMP substrate to a 5′-GMP product. The reaction mixture, from a microtiter plate well, is introduced through a capillary sipper onto the chip, where the fluorescent substrate and product are separated by electrophoresis and detected via laser-induced fluorescence. […] The precision of microfluidics allows researchers to detect subtle interactions between drug candidates and therapeutic targets.
# (§5) Reactions were carried out in 100 mM HEPES (pH 7.5), 5 mM MgCl2, 1 mM DTT, 0.003% Brij, 4.0 μM cGMP substrate. The reaction was started by addition of cGMP or cAMP and incubated for 1 hour at R.T. The reaction was terminated by the addition of stop buffer containing 100 mM HEPES (pH 7.5), 15 mM EDTA, 0.015% Brij-35, 5% DMSO. Cyclic AMP/GMP substrate and 5′-AMP/5′-GMP product were separated by charge using electrophoretic mobility shift. Product formed was compared to control wells to determine inhibition or enhancement of enzyme activity.
# (§6) Data points were averages of quadruplicate wells and error bars represented the SEM for each point.
# PDE1A = molecular target: T3, PDE1A (Homo sapiens, UniProt P54750); assay: Phosphodiesterase enzyme screening assay, PDE1A
# T3 construct: purchased Reaction Biology Corporation, Malvern, Pa
# Text: as §1, §2, §3, §4, §5, §6
# [1] = Table 1, 10 concentrations, 4.0 μM cGMP substrate, 1 hour at R.T., read-out: Band (PDE9A2 IC50)
# [2] = Table 1, ratio of IC50 values, value greater than 1 indicates greater selectivity for PDE9A2
# [3] = 4.0 μM cGMP substrate, 1 hour at R.T., read-out: Band (PDE9A2 IC50)
# [4] = ratio of IC50 values PDE1B / PDE9A2, value greater than 1 = greater selectivity for PDE9A2
# [5] = ratio of IC50 values PDE1A / PDE9A2, value greater than 1 = greater selectivity for PDE9A2
# [6] = ratio of IC50 values, PDE1B versus PDE9A2, value greater than 1 indicates greater selectivity for PDE9A2
# [7] = ratio of IC50 values, PDE1A versus PDE9A2, value greater than 1 indicates greater selectivity for PDE9A2
# [8] = ratio of IC50 values, value greater than 1 indicates greater selectivity for PDE9A2
# [9] = Table 2, ratio of IC50 values, value greater than 1 indicates greater selectivity for PDE9A2
# T2 sequence (Q01064 whole entry): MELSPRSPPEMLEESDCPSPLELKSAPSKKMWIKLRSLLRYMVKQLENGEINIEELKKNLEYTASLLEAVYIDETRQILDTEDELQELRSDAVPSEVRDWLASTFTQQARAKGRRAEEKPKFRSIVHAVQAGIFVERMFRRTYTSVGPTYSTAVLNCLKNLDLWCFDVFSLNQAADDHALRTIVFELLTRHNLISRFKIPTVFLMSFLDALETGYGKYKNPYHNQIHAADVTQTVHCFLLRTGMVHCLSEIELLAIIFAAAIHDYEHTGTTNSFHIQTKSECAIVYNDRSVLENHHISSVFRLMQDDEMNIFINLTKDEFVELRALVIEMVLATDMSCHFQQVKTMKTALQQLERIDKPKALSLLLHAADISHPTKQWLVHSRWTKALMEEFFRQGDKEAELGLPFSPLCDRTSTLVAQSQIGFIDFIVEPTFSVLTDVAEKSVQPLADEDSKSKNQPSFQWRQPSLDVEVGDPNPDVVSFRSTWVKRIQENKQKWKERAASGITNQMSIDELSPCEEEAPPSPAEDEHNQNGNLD
# T3 sequence (P54750 whole entry): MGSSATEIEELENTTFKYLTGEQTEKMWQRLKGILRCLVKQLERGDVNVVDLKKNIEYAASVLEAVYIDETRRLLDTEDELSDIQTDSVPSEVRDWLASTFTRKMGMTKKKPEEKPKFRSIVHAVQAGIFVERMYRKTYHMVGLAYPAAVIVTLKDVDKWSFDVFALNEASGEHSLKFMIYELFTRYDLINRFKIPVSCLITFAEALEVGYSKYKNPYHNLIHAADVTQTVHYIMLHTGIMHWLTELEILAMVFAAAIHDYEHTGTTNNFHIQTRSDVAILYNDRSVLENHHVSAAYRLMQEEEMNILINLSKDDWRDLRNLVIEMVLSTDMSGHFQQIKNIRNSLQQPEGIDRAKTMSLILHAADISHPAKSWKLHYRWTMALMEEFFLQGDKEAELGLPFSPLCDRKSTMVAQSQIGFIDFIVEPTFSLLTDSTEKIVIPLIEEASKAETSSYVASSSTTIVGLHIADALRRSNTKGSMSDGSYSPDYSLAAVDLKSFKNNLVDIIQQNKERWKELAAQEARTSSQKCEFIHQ
# T1 sequence (O76083 1-533 isoform O76083-2): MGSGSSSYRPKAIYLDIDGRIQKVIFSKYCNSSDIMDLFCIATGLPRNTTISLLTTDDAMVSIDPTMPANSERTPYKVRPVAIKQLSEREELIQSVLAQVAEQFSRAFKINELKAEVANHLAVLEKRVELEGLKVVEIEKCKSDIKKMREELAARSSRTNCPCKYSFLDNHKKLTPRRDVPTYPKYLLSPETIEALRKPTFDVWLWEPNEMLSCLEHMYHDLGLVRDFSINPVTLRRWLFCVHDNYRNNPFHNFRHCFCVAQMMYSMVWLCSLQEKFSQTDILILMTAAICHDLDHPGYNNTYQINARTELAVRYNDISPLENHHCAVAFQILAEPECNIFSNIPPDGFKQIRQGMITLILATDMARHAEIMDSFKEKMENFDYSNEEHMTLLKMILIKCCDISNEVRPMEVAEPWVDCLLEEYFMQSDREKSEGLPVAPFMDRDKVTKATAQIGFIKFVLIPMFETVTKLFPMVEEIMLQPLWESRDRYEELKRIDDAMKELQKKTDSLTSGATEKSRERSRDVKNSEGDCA
Compound,IC50 (PDE9A2; [1]) [nM],PDE1B selectivity (versus PDE9A2) (PDE1B; [2]),PDE1A selectivity (versus PDE9A2) (PDE1A; [2]),IC50 (PDE9A2; read-out: Band (PDE9A2 IC50)) [nM],further results
"CC1CN(Cc2ccnnc2)CC1c1nn2c(C3CCOCC3)ncc2c(=O)[nH]1 (single isomer, unassigned; (+)) [(+)-2-((3,4-trans)-4-methyl-1-(pyridazin-4-ylmethyl)pyrrolidin-3-yl)-7-(tetrahydro-2H-pyran-4-yl)imidazo[5,1-f][1,2,4]triazin-4(3H)-one]",< 1000,99,71,,
"CC1CN(Cc2ccccc2N(C)C)CC1c1nn2c(C3CCOCC3)ncc2c(=O)[nH]1 (single isomer, unassigned; (+)) [(+)-2-((3,4-trans)-1-(2-(dimethylamino)benzyl)-4-methylpyrrolidin-3-yl)-7-(tetrahydro-2H-pyran-4-yl)imidazo[5,1-f][1,2,4]triazin-4(3H)-one]",< 1000,279,363,,
"CC1CN(Cc2c(F)ccc(F)c2Cl)CC1c1nn2c(C3CCOCC3)ncc2c(=O)[nH]1 (single isomer, unassigned; (+)) [(+)-2-((3,4-trans)-1-(2-chloro-3,6-difluorobenzyl)-4-methylpyrrolidin-3-yl)-7-(tetrahydro-2H-pyran-4-yl)imidazo[5,1-f][1,2,4]triazin-4(3H)-one]",,,,,IC50 (PDE9A2; [3]): < 1000 nM; PDE1B selectivity (versus PDE9A2) (PDE1B; [4]): 231; PDE1A selectivity (versus PDE9A2) (PDE1A; [5]): 118
"CC1CN(Cc2nc3ccccn3n2)CC1c1nn2c(C3CCCC3)ncc2c(=O)[nH]1 (single isomer, unassigned; (+)) [(+)-2-((3,4-trans)-1-([1,2,4]triazolo[1,5-a]pyridin-2-ylmethyl)-4-methylpyrrolidin-3-yl)-7-cyclopentylimidazo[5,1-f][1,2,4]triazin-4(3H)-one]",,,,< 1000,PDE1B selectivity (versus PDE9A2) (PDE1B; [6]): 204; PDE1A selectivity (versus PDE9A2) (PDE1A; [7]): 98
"CC1CN(Cc2ncn(C)n2)CC1c1nn2c(C3CCOCC3)ncc2c(=O)[nH]1 (single isomer, unassigned; (+)) [(+)-2-((3,4-trans)-4-methyl-1-((1-methyl-1H-1,2,4-triazol-3-yl)methyl)pyrrolidin-3-yl)-7-(tetrahydro-2H-pyran-4-yl)imidazo[5,1-f][1,2,4]triazin-4(3H)-one]",,,,< 1000,PDE1B selectivity (versus PDE9A2) (PDE1B; [8]): 266; PDE1A selectivity (versus PDE9A2) (PDE1A; [8]): 208
"CC1CN(Cc2ccccc2C#N)CC1c1nn2c(C3CCOCC3)ncc2c(=O)[nH]1 (single isomer, unassigned; (+)) [(+)-2-(((3,4-trans)-3-methyl-4-(4-oxo-7-(tetrahydro-2H-pyran-4-yl)-3,4-dihydroimidazo[5,1-f][1,2,4]triazin-2-yl)pyrrolidin-1-yl)methyl)benzonitrile]",< 1000,220,241,,
"CCC(CC)c1ncc2c(=O)[nH]c(C3CN(Cc4ccc(F)cc4)CC3C)nn12 (single isomer, unassigned; (+)) [(+)-2-((3,4-trans)-1-(4-fluorobenzyl)-4-methylpyrrolidin-3-yl)-7-(pentan-3-yl)imidazo[5,1-f][1,2,4]triazin-4(3H)-one]",,,,< 1000,PDE1B selectivity (versus PDE9A2) (PDE1B; [6]): 27; PDE1A selectivity (versus PDE9A2) (PDE1A; [7]): 70
"CC1CN(C(=O)c2ccccc2F)CC1c1nn2c(C3CCOCC3)ncc2c(=O)[nH]1 (single isomer, unassigned; (-)) [(−)-2-((3,4-trans)-1-(2-fluorobenzoyl)-4-methylpyrrolidin-3-yl)-7-(tetrahydro-2H-pyran-4-yl)imidazo[5,1-f][1,2,4]triazin-4(3H)-one]",< 1000,7,9,,
"Cc1cc(F)c(F)cc1-c1ncc2c(=O)[nH]c(C3CN(Cc4ncccn4)CC3C)nn12 (single isomer, unassigned; (+)) [(+)-7-(4,5-difluoro-2-methylphenyl)-2-((3,4-trans)-4-methyl-1-(pyrimidin-2-ylmethyl)pyrrolidin-3-yl)imidazo[5,1-f][1,2,4]triazin-4(3H)-one]",,,,< 1000,PDE1B selectivity (versus PDE9A2) (PDE1B; [6]): 85; PDE1A selectivity (versus PDE9A2) (PDE1A; [7]): 44
"Cc1ccnc(CN2CC(C)C(c3nn4c(C5CCOCC5)ncc4c(=O)[nH]3)C2)n1 (single isomer, unassigned; (+)) [(+)-2-((3,4-trans)-4-methyl-1-((4-methylpyrimidin-2-yl)methyl)pyrrolidin-3-yl)-7-(tetrahydro-2H-pyran-4-yl)imidazo[5,1-f][1,2,4]triazin-4(3H)-one]",,,,,"IC50 (PDE9A2; Table 2, 10 concentrations, 4.0 μM cGMP substrate, 1 hour at R.T., read-out: Band (PDE9A2 IC50)): < 1000 nM; PDE1B selectivity (versus PDE9A2) (PDE1B; [9]): 220; PDE1A selectivity (versus PDE9A2) (PDE1A; [9]): 182"
"Cc1cc(CN2CC(C)C(c3nn4c(C5CCOCC5)ncc4c(=O)[nH]3)C2)n(C)n1 (single isomer, unassigned; (+)) [(+)-2-((3,4-trans)-1-((1,3-dimethyl-1H-pyrazol-5-yl)methyl)-4-methylpyrrolidin-3-yl)-7-(tetrahydro-2H-pyran-4-yl)imidazo[5,1-f][1,2,4]triazin-4(3H)-one]",< 1000,670,487,,
"Cc1ccccc1-c1ncc2c(=O)[nH]c(C3CN(Cc4cccnc4)CC3C)nn12 (single isomer, unassigned; (+)) [(+)-2-((3,4-trans)-4-methyl-1-(pyridin-3-ylmethyl)pyrrolidin-3-yl)-7-(o-tolyl)imidazo[5,1-f][1,2,4]triazin-4(3H)-one]",,,,< 1000,PDE1B selectivity (versus PDE9A2) (PDE1B; [6]): 183; PDE1A selectivity (versus PDE9A2) (PDE1A; [7]): 103
"CC1CN(Cc2ccccc2N2CCCC2)CC1c1nn2c(C3CCOCC3)ncc2c(=O)[nH]1 (single isomer, unassigned; (+)) [(+)-2-((3,4-trans)-4-methyl-1-(2-(pyrrolidin-1-yl)benzyl)pyrrolidin-3-yl)-7-(tetrahydro-2H-pyran-4-yl)imidazo[5,1-f][1,2,4]triazin-4(3H)-one]",< 1000,213,184,,
"CC1CN(c2nccc(C(F)(F)F)n2)CC1c1nn2c(C3CCOCC3)ncc2c(=O)[nH]1 (single isomer, unassigned; (+)) [(+)-2-((3,4-trans)-4-methyl-1-(4-(trifluoromethyl)pyrimidin-2-yl)pyrrolidin-3-yl)-7-(tetrahydro-2H-pyran-4-yl)imidazo[5,1-f][1,2,4]triazin-4(3H)-one]",,,,,IC50 (PDE9A2; [3]): < 1000 nM; PDE1B selectivity (versus PDE9A2) (PDE1B; [4]): 1; PDE1A selectivity (versus PDE9A2) (PDE1A; [5]): 7
"Cc1ccccc1-c1ncc2c(=O)[nH]c(C3CN(Cc4ncccn4)CC3C)nn12 (single isomer, unassigned; (+)) [(+)-2-((3,4-trans)-4-methyl-1-(pyrimidin-2-ylmethyl)pyrrolidin-3-yl)-7-(o-tolyl)imidazo[5,1-f][1,2,4]triazin-4(3H)-one]",< 1000,119,84,,
"Cc1ccccc1-c1ncc2c(=O)[nH]c(C3CN(Cc4ccccc4)CC3C)nn12 (single isomer, unassigned; (+)) [(+)-2-((3,4-trans)-1-benzyl-4-methylpyrrolidin-3-yl)-7-(o-tolyl)imidazo[5,1-f][1,2,4]triazin-4(3H)-one]",,,,< 1000,PDE1B selectivity (versus PDE9A2) (PDE1B; [6]): 531; PDE1A selectivity (versus PDE9A2) (PDE1A; [7]): 461
"Cc1cc(F)ccc1-c1ncc2c(=O)[nH]c(C3CN(Cc4ccc(F)cc4)CC3C)nn12 (single isomer, unassigned; (+)) [(+)-7-(4-fluoro-2-methylphenyl)-2-((3,4-trans)-1-(4-fluorobenzyl)-4-methylpyrrolidin-3-yl)imidazo[5,1-f][1,2,4]triazin-4(3H)-one]",,,,,"IC50 (PDE9A2; IC50 band, 4.0 μM cGMP substrate, 1 hour at R.T.): < 1000 nM; PDE1B selectivity (versus PDE9A2) (PDE1B; ratio of IC50 values PDE1B vs PDE9A2, value greater than 1 indicates greater selectivity for PDE9A2): 493; PDE1A selectivity (versus PDE9A2) (PDE1A; ratio of IC50 values PDE1A vs PDE9A2, value greater than 1 indicates greater selectivity for PDE9A2): 345"
